Reference: ChEMBL document CHEMBL3045835, “Comparative study of conventional and microwave-assisted synthesis of some Schiff bases and their potential as antimicrobial agents” (2012)
Converted amounts (≈) assume the structure as drawn.

Key:
Type in all cases: functional
Micrococcus luteus [1] = experiment: Antibacterial activity against Micrococcus luteus MTCC 1538 after 24 hr by broth dilution method; conditions: MTCC 1538, 24 h
Bacillus pumilus [2] = experiment: Antibacterial activity against Bacillus pumilus MTCC 1456 at 100 ug/ml after 18 hr by cup-plate method; conditions: MTCC 1456, 18 h, read-out: DIZ
Micrococcus luteus [3] = experiment: Antibacterial activity against Micrococcus luteus MTCC 1538 at 1500 ug/ml after 18 hr by cup-plate method; conditions: MTCC 1538, 18 h, read-out: DIZ
Staphylococcus aureus [4] = experiment: Antibacterial activity against Staphylococcus aureus MTCC 1430 at 200 ug/ml after 18 hr by cup-plate method; conditions: MTCC 1430, 18 h, read-out: DIZ
Micrococcus luteus [5] = experiment: Antibacterial activity against Micrococcus luteus MTCC 1538 at 1000 ug/ml after 18 hr by cup-plate method; conditions: MTCC 1538, 18 h, read-out: DIZ
Escherichia coli [6] = experiment: Antibacterial activity against Escherichia coli MTCC 1573 after 24 hr by broth dilution method; conditions: MTCC 1573, 24 h
Micrococcus luteus [7] = experiment: Antibacterial activity against Micrococcus luteus MTCC 1538 at 500 ug/ml after 18 hr by cup-plate method; conditions: MTCC 1538, 18 h, read-out: DIZ
Bacillus subtilis [8] = experiment: Antibacterial activity against Bacillus subtilis MTCC 441 at 500 ug/ml after 18 hr by cup plate method; conditions: MTCC 441, 18 h, read-out: DIZ
Staphylococcus aureus [9] = experiment: Antibacterial activity against Staphylococcus aureus MTCC 1430 at 100 ug/ml after 18 hr by cup-plate method; conditions: MTCC 1430, 18 h, read-out: DIZ
Aspergillus niger [10] = experiment: Antifungal activity against Aspergillus niger MTCC 2546 at 500 ug/ml after 18 hr by cup-plate method; conditions: MTCC 2546, 18 h, read-out: DIZ
Penicillium chrysogenum [11] = experiment: Antifungal activity against Penicillium chrysogenum MTCC 161 at 200 ug/ml after 18 hr by cup-plate method; conditions: MTCC 161, 18 h, read-out: DIZ
Pseudomonas aeruginosa [12] = experiment: Antibacterial activity against Pseudomonas aeruginosa MTCC 424 at 1500 ug/ml after 18 hr by cup-plate method; conditions: MTCC 424, 18 h, read-out: DIZ
Penicillium chrysogenum [13] = experiment: Antifungal activity against Penicillium chrysogenum MTCC 161 at 100 ug/ml after 18 hr by cup-plate method; conditions: MTCC 161, 18 h, read-out: DIZ
Pseudomonas fluorescens [14] = experiment: Antibacterial activity against Pseudomonas fluorescens MTCC 2421 at 100 ug/ml after 18 hr by cup-plate method; conditions: MTCC 2421, 18 h, read-out: DIZ
Escherichia coli [15] = experiment: Antibacterial activity against Escherichia coli MTCC 1573 at 500 ug/ml after 18 hr by cup-plate method; conditions: MTCC 1573, 18 h, read-out: DIZ
Penicillium chrysogenum [16] = experiment: Antifungal activity against Penicillium chrysogenum MTCC 161 at 1500 ug/ml after 18 hr by cup-plate method; conditions: MTCC 161, 18 h, read-out: DIZ
Bacillus pumilus [17] = experiment: Antibacterial activity against Bacillus pumilus MTCC 1456 at 500 ug/ml after 18 hr by cup-plate method; conditions: MTCC 1456, 18 h, read-out: DIZ
Micrococcus luteus [18] = experiment: Antibacterial activity against Micrococcus luteus MTCC 1538 at 200 ug/ml after 18 hr by cup-plate method; conditions: MTCC 1538, 18 h, read-out: DIZ
Bacillus subtilis [19] = experiment: Antibacterial activity against Bacillus subtilis MTCC 441 at 1500 ug/ml after 18 hr by cup plate method; conditions: MTCC 441, 18 h, read-out: DIZ
Pseudomonas fluorescens [20] = experiment: Antibacterial activity against Pseudomonas fluorescens MTCC 2421 at 200 ug/ml after 18 hr by cup-plate method; conditions: MTCC 2421, 18 h, read-out: DIZ
Escherichia coli [21] = experiment: Antibacterial activity against Escherichia coli MTCC 1573 at 1000 ug/ml after 18 hr by cup-plate method; conditions: MTCC 1573, 18 h, read-out: DIZ
Escherichia coli [22] = experiment: Antibacterial activity against Escherichia coli MTCC 1573 at 1500 ug/ml after 18 hr by cup-plate method; conditions: MTCC 1573, 18 h, read-out: DIZ
Bacillus pumilus [23] = experiment: Antibacterial activity against Bacillus pumilus MTCC 1456 after 24 hr by broth dilution method; conditions: MTCC 1456, 24 h
Pseudomonas aeruginosa [24] = experiment: Antibacterial activity against Pseudomonas aeruginosa MTCC 424 at 1000 ug/ml after 18 hr by cup-plate method; conditions: MTCC 424, 18 h, read-out: DIZ
Staphylococcus aureus [25] = experiment: Antibacterial activity against Staphylococcus aureus MTCC 1430 after 24 hr by broth dilution method; conditions: MTCC 1430, 24 h
Aspergillus niger [26] = experiment: Antifungal activity against Aspergillus niger MTCC 2546 at 200 ug/ml after 18 hr by cup-plate method; conditions: MTCC 2546, 18 h, read-out: DIZ
Pseudomonas aeruginosa [27] = experiment: Antibacterial activity against Pseudomonas aeruginosa MTCC 424 at 100 ug/ml after 18 hr by cup-plate method; conditions: MTCC 424, 18 h, read-out: DIZ

O=c1c(/C=N/c2ccc(Cl)cc2)coc2ccccc12
MIC (Micrococcus luteus [1]): 200 µg/mL (≈ 705 µM)
zone of inhibition at 100 µg/mL (Bacillus pumilus [2]): 12 mm
zone of inhibition at 1500 µg/mL (Micrococcus luteus [3]): 24 mm
zone of inhibition at 200 µg/mL (Staphylococcus aureus [4]): 14 mm
zone of inhibition at 1000 µg/mL (Micrococcus luteus [5]): 23 mm
MIC (Escherichia coli [6]): 400 µg/mL (≈ 1410 µM)
zone of inhibition at 500 µg/mL (Micrococcus luteus [7]): 21 mm
zone of inhibition at 500 µg/mL (Bacillus subtilis [8]): 17 mm
zone of inhibition at 100 µg/mL (Staphylococcus aureus [9]): 12 mm
zone of inhibition at 500 µg/mL (Aspergillus niger [10]): 19 mm
zone of inhibition at 200 µg/mL (Penicillium chrysogenum [11]): 17 mm
zone of inhibition at 1500 µg/mL (Pseudomonas aeruginosa [12]): 21 mm
zone of inhibition at 100 µg/mL (Penicillium chrysogenum [13]): 15 mm
zone of inhibition at 100 µg/mL (Pseudomonas fluorescens [14]): 11 mm
zone of inhibition at 500 µg/mL (Escherichia coli [15]): 17 mm
zone of inhibition at 1500 µg/mL (Penicillium chrysogenum [16]): 21 mm
zone of inhibition at 500 µg/mL (Bacillus pumilus [17]): 17 mm
zone of inhibition at 200 µg/mL (Micrococcus luteus [18]): 19 mm
zone of inhibition at 1500 µg/mL (Bacillus subtilis [19]): 21 mm
zone of inhibition at 200 µg/mL (Pseudomonas fluorescens [20]): 12 mm
zone of inhibition at 1000 µg/mL (Escherichia coli [21]): 19 mm
zone of inhibition at 1500 µg/mL (Escherichia coli [22]): 20 mm
MIC (Bacillus pumilus [23]): 200 µg/mL (≈ 705 µM)
zone of inhibition at 1000 µg/mL (Pseudomonas aeruginosa [24]): 20 mm
MIC (Staphylococcus aureus [25]): 300 µg/mL (≈ 1060 µM)
zone of inhibition at 200 µg/mL (Aspergillus niger [26]): 18 mm
zone of inhibition at 100 µg/mL (Pseudomonas aeruginosa [27]): 16 mm
